Read-outs that look alike come from different tables or passages of the source.
Columns and labels:
MERS-CoV [1] = assay type: cell-based
MERS-CoV [2] = assay type: cell-based, MERS-CoV (HCoV-EMC/2012)
MERS-CoV [3] = assay type: cell-based, MERS-CoV (HCoV-EMC/2012); remark: listed apart in the source
[4] = test system: MERS-CoV nucleoprotein (NP); assay type: cell-based
MERS-CoV [5] = assay type: cell-based; remark: listed apart in the source
MERS-CoV [6] = assay type: cell-based; remark: listed apart in the source
MERS-CoV [7] = assay type: cell-based; remark: listed apart in the source
TNF-α, IL-1β, IL-8 = assay type: cell-based, human
MERS-CoV [8] = experiment: microbe, parasite or virus in culture; assay type: cell-based
MERS-CoV [9] = assay type: cell-based; remark: listed apart in the source
MERS-CoV [10] = assay type: cell-based; remark: listed apart in the source
MERS-CoV [11] = details: mouse, in vivo
MERS-CoV [12] = assay type: cell-based, MERS-CoV (HCoV-EMC/2012); remark: listed apart in the source
SARS-CoV = assay type: cell-based, SARS-CoV (GZ50)
Zika virus (ZIKV) = assay type: cell-based, ZIKV (Puerto Rico strain PRVABC59)
enterovirus-A71 (EV-A71) = assay type: cell-based, Enterovirus A71 (SZ/HK08-5)
[13] = test system: human adenovirus type 5 (AdV5); assay type: cell-based
Influenza A(H7N9) virus = details: mouse, in vivo
MERS-CoV [14] = assay type: cell-based; remark: listed apart in the source
[15] = test system: TK, CMV and SV40 promoters; assay type: cell-based
MERS-CoV [16] = assay type: cell-based; remark: listed apart in the source
Calu-3 cells = assay type: cell-based, human
Huh7 cells = assay type: cell-based, human
[17] = test system: fatty acid and cholesterol synthesis genes; assay type: cell-based, human
MERS-CoV [18] = assay type: cell-based; remark: listed apart in the source
n-SREBP1 = molecular target: T1, n-SREBP1 (Homo sapiens, UniProt P36956); experiment: SREBP1 DNA (SRE) binding activity assay; assay type: biochemical
T1 construct: requires cleavage of pre-SREBPs to release the nuclear form (n-SREBPs); endogenous in cells; host or cells: Huh7 nuclear extract
T1 sequence (P36956 1-490 limits assumed): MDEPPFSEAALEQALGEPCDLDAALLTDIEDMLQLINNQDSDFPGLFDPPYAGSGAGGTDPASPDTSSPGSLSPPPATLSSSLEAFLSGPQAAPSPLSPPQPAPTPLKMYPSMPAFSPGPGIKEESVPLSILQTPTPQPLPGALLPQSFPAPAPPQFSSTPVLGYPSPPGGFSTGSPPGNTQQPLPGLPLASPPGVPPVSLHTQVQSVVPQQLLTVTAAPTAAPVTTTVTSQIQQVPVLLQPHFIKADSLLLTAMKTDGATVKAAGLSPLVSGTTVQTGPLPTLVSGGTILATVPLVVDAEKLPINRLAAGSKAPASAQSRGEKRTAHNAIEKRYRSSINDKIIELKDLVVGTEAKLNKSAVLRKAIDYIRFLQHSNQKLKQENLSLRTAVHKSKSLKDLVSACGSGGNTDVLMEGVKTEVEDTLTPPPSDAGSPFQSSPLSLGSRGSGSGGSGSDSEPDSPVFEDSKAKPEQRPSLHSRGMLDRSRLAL

n-SREBP2 = molecular target: T2, n-SREBP2 (Homo sapiens, UniProt Q12772); experiment: SREBP2 DNA (SRE) binding activity assay; assay type: biochemical; details: dose-dependent
T2 construct: requires cleavage of pre-SREBPs to release the nuclear form (n-SREBPs); endogenous in cells; Huh7 in the sister assay
T2 sequence (Q12772 1-484 limits assumed): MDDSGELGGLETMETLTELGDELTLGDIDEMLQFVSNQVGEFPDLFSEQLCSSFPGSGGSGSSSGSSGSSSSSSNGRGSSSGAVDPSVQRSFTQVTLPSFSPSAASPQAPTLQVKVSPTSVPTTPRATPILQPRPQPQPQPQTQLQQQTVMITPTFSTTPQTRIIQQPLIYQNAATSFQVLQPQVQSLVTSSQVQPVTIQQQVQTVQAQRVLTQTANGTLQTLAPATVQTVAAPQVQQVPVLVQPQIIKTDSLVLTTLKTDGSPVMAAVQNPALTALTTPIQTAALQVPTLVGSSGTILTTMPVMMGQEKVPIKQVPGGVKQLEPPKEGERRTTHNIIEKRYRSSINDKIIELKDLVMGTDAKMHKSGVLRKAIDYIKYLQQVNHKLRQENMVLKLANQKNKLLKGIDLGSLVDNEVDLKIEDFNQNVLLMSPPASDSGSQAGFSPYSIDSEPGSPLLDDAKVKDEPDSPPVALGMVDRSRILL

HMGCS promoter = assay type: cell-based, hamster
FAS-promoter = assay type: cell-based
MERS-CoV [19] = assay type: cell-based; remark: listed apart in the source
[20] = test system: double-membrane vesicles (DMVs); assay type: cell-based, African green monkey
[21] = mouse models, reported [43]; cited from earlier work
MERS-CoV [22] = assay type: cell-based; remark: listed apart in the source
[23] = Middle East respiratory syndrome-related coronavirus, read-out: IC50 anti-MERS-CoV activity

CCCCCCCCCCCCCCC(Br)C(=O)O (stereo not shown) [2-BP]
palmitoylated-HA level (hemagglutinin (HA)): Reduced levels of palmitoylated-HA | total HA protein (hemagglutinin (HA)): no impact on protein synthesis | MERS-CoV replication (MERS-CoV [1]): inhibited MERS-CoV replication in a dose-dependent manner

C=C1CC[C@H](O)C/C1=C/C=C1\CCC[C@]2(C)[C@@H]([C@H](C)CCCC(C)(C)O)CC[C@@H]12 [25-Hydroxyvitamin D3]
cell protection against MERS-CoV infection (MERS-CoV [2]): protected Huh7 cells against MERS-CoV infection

CC1(C)CCC(C)(C)c2cc(C(=O)Nc3ccc(C(=O)O)cc3)ccc21 [AM580]
cell protection against MERS-CoV infection (MERS-CoV [2]): protected cells against infection | reduction of viral titer in the cell supernatant (MERS-CoV [3]): > 3 logs | expression of MERS-CoV nucleoprotein (NP) [4]: dramatically decreased | MERS-CoV NP-positive cells (MERS-CoV [5]): 5.38% | immunofluorescence staining for MERS-CoV NP (MERS-CoV [6]): near-complete suppression of virus infection | MERS-CoV replication in multiple cell types (MERS-CoV [7]): reduce MERS-CoV replication in multiple cell types | virus-induced pro-inflammatory cytokine activation (TNF-α, IL-1β, IL-8): suppress virus-induced pro-inflammatory cytokine activation | IC50 (MERS-CoV [8]; read-out: IC50 against MERS-CoV infection): < 1000 nM | PFU in intestinoid culture supernatant (MERS-CoV [9]): no PFU were detectable | expression of viral NP in intestinoids (MERS-CoV [9]): markedly decreased expression of viral NP | reduction of viral titer relative to DMSO-treated control intestinoids (MERS-CoV [9]): approximately 6 log10 PFU/ml | MERS-CoV NP expression in epithelial cells of terminal bronchioles (MERS-CoV [10]): marked reduction in MERS-CoV NP expression | alveolar damage and interstitial inflammatory infiltration in lung tissues (MERS-CoV [11]): significantly improved | mean body weight vs DMSO-treated control mice (MERS-CoV [11]): generally higher | reduction of viral RNA content of brain tissues vs DMSO-treated control (MERS-CoV [11]): 4 log10 | viral RNA content in lung tissues vs DMSO-treated control (MERS-CoV [11]): significantly (p<0.01) lower | survival (MERS-CoV [11]; ip, 12.5 mg/kg/day): 100% | selectivity index (CC50/IC50) (MERS-CoV [12]): 507 | concentrations inhibiting replication of SARS-CoV (SARS-CoV): nanomolar to low micromolar | selectivity index (CC50/IC50) (SARS-CoV): 114 | concentrations inhibiting replication of ZIKV (Zika virus (ZIKV)): nanomolar to low micromolar | concentrations inhibiting replication of EV-A71 (enterovirus-A71 (EV-A71)): nanomolar to low micromolar | concentrations inhibiting replication of AdV5 [13]: nanomolar to low micromolar | lung histopathology (Influenza A(H7N9) virus): ameliorated virus-associated pulmonary inflammatory infiltration and bronchopneumonia | mean body weight (Influenza A(H7N9) virus): gradually rebounded starting on day 8 post-challenge | mean viral RNA load in lung tissues vs DMSO-treated control (Influenza A(H7N9) virus): significantly (p<0.01) lower | survival rate (Influenza A(H7N9) virus): 60% | antiviral potency of AM580 with RAR-α antagonist ER50891 (MERS-CoV [14]): did not diminish the antiviral potency | transactivation of TK, CMV and SV40 promoters [15]: did not inhibit transactivation of promoters | MERS-CoV attachment or internalization (MERS-CoV [16]): did not interfere with MERS-CoV attachment or internalization | virus-induced perturbation of lipid homeostasis (lipidome) (Calu-3 cells): antagonized this virus-induced perturbation of lipid homeostasis | accumulation of lipid droplets and cholesterol (Huh7 cells): significantly reduced their production | cholesterol synthetic pathway genes with reduced mRNA expression (10/12) [17]: 83.3% | fatty acid metabolism genes with significant decreases in mRNA expression (13/17) [17]: 76.5% | loss of antiviral potency with increased n-SREBPs (MERS-CoV [18]): about 1 log10 unit | binding of n-SREBP1 with its SRE (n-SREBP1; Huh7 nuclear extraction, 20 μM): inhibited binding | binding partner: n-SREBP1 or SRE (pre-incubation) (n-SREBP1; pre-incubation 2 h): bind with n-SREBP1 rather than SRE | binding of n-SREBP2 with its SRE (n-SREBP2): inhibited binding | HMGCS-promoter-Luc reporter gene activity (HMGCS promoter): concentration-dependent inhibition | FAS-promoter-Luc reporter gene activity (FAS-promoter): concentration-dependent inhibition | anti-MERS-CoV activity (viral yield) (MERS-CoV [19]): showed anti-MERS-CoV activity | virus yield on addition of sodium palmitate (MERS-CoV [19]): increased the virus yield | DMV formation [20]: no DMVs were noted | palmitoylated-HA level (hemagglutinin (HA)): Reduced levels of palmitoylated-HA | total HA protein (hemagglutinin (HA)): no impact on protein synthesis | CC50 (different cell lines): 100000 to 200000 nM | teratogenicity [21]: teratogenic effects

CC1(C)CCC(C)(C)c2cc(NC(=O)c3ccc(C(=O)O)cc3)ccc21 [Tamibarotene]
IC50 (MERS-CoV [8]; [23]): 320 ± 26 nM

C=C(C)[C@@H]1CC[C@]2(CO)CC[C@]3(C)[C@H](CC[C@@H]4[C@@]5(C)CC[C@H](O)C(C)(C)[C@@H]5CC[C@]43C)[C@@H]12 [betulin]
reduction in viral titer (MERS-CoV [22]): about 1 log PFU/ml

C=C(c1ccc(C(=O)O)cc1)c1cc2c(cc1C)C(C)(C)CCC2(C)C [bexarotene]
IC50 (MERS-CoV [8]; [23]): 875 ± 15 nM

PF429242
reduction in viral titer (MERS-CoV [22]): about 1 log PFU/ml
